From the NIST ThermoML archive (doi:10.1016/j.jct.2013.08.034)

Assay: xn = mol fraction of the nth substance listed
Settings: 101 kPa, Liquid; for mass density: Vibrating tube method; for electrical conductivity: Conductivity Meter Jenco 3107; for viscosity: Cone and plate viscometry

CC1COC(=O)O1 (centres undefined) [4-methyl-1,3-dioxolan-2-one] + CCCC[n+]1ccn(C)c1.O=S(=O)([N-]S(=O)(=O)C(F)(F)F)C(F)(F)F
Settings | electrical conductivity [S/m] | mass density [kg/m3] | viscosity [mPa·s]
308.15 K, x2 = 0.7989 | – | 1410.26 | –
308.15 K, x2 = 0.898 | – | 1418.04 | –
313.15 K, x2 = 0 | – | – | 2.05
313.15 K, x2 = 0.0146 | – | 1194.33 | –
313.15 K, x2 = 0.0296 | – | 1205.22 | –
313.15 K, x2 = 0.0453 | – | 1215.97 | –
313.15 K, x2 = 0.0502 | 1.14 | – | –
313.15 K, x2 = 0.0616 | – | 1226.46 | –
313.15 K, x2 = 0.0732 | – | 1233.52 | –
313.15 K, x2 = 0.0997 | – | 1248.42 | –
313.15 K, x2 = 0.1 | – | – | 3.21
313.15 K, x2 = 0.1004 | 1.44 | – | –
313.15 K, x2 = 0.2001 | 1.66 | – | –
313.15 K, x2 = 0.2002 | – | – | 4.59
313.15 K, x2 = 0.2004 | – | 1293.64 | –
313.15 K, x2 = 0.3002 | 1.52 | – | –
313.15 K, x2 = 0.3007 | – | – | 6.34
313.15 K, x2 = 0.3081 | – | 1328.25 | –
313.15 K, x2 = 0.3998 | – | – | 8.29
313.15 K, x2 = 0.4004 | – | 1350.46 | –
313.15 K, x2 = 0.4005 | 1.4 | – | –
313.15 K, x2 = 0.5004 | – | – | 10.77
313.15 K, x2 = 0.5007 | 1.25 | – | –
313.15 K, x2 = 0.5021 | – | 1369.47 | –
313.15 K, x2 = 0.5839 | – | 1381.78 | –
313.15 K, x2 = 0.6002 | – | – | 13.57
313.15 K, x2 = 0.6003 | 1.11 | – | –
313.15 K, x2 = 0.6902 | – | 1394.71 | –
313.15 K, x2 = 0.6979 | – | – | 16.55
313.15 K, x2 = 0.6989 | 0.971 | – | –
313.15 K, x2 = 0.7989 | – | 1405.28 | –
313.15 K, x2 = 0.8001 | 0.85 | – | –
313.15 K, x2 = 0.8015 | – | – | 20.47
313.15 K, x2 = 0.8959 | 0.73 | – | 23.63
313.15 K, x2 = 0.898 | – | 1413.08 | –
318.15 K, x2 = 0 | – | – | 1.9
318.15 K, x2 = 0.0146 | – | 1188.81 | –
318.15 K, x2 = 0.0296 | – | 1199.72 | –
318.15 K, x2 = 0.0453 | – | 1210.48 | –
318.15 K, x2 = 0.0502 | 1.23 | – | –
318.15 K, x2 = 0.0616 | – | 1220.94 | –
318.15 K, x2 = 0.0732 | – | 1228.04 | –
318.15 K, x2 = 0.0997 | – | 1243.05 | –
318.15 K, x2 = 0.1 | – | – | 2.89
318.15 K, x2 = 0.1004 | 1.59 | – | –
318.15 K, x2 = 0.2001 | 1.81 | – | –
318.15 K, x2 = 0.2002 | – | – | 4.17
318.15 K, x2 = 0.2004 | – | 1288.34 | –
318.15 K, x2 = 0.3002 | 1.68 | – | –
318.15 K, x2 = 0.3007 | – | – | 5.68
318.15 K, x2 = 0.3081 | – | 1323.02 | –
318.15 K, x2 = 0.3998 | – | – | 7.31
318.15 K, x2 = 0.4004 | – | 1345.37 | –
318.15 K, x2 = 0.4005 | 1.57 | – | –
318.15 K, x2 = 0.5004 | – | – | 9.37
318.15 K, x2 = 0.5007 | 1.41 | – | –
318.15 K, x2 = 0.5021 | – | 1364.43 | –
318.15 K, x2 = 0.5839 | – | 1376.72 | –
318.15 K, x2 = 0.6002 | – | – | 11.75
318.15 K, x2 = 0.6003 | 1.26 | – | –
318.15 K, x2 = 0.6902 | – | 1389.72 | –
318.15 K, x2 = 0.6979 | – | – | 14.29
318.15 K, x2 = 0.6989 | 1.11 | – | –
318.15 K, x2 = 0.7989 | – | 1400.29 | –
318.15 K, x2 = 0.8001 | 0.961 | – | –
318.15 K, x2 = 0.8015 | – | – | 17.5
318.15 K, x2 = 0.8959 | 0.828 | – | 20.04
318.15 K, x2 = 0.898 | – | 1408.1 | –
323.15 K, x2 = 0 | – | – | 1.78
323.15 K, x2 = 0.0146 | – | 1183.28 | –
323.15 K, x2 = 0.0296 | – | 1194.23 | –
323.15 K, x2 = 0.0453 | – | 1204.99 | –
323.15 K, x2 = 0.0502 | 1.32 | – | –
323.15 K, x2 = 0.0616 | – | 1215.52 | –
323.15 K, x2 = 0.0732 | – | 1222.56 | –
323.15 K, x2 = 0.0997 | – | 1237.51 | –
323.15 K, x2 = 0.1 | – | – | 2.68
323.15 K, x2 = 0.1004 | 1.74 | – | –
323.15 K, x2 = 0.2001 | 1.97 | – | –
323.15 K, x2 = 0.2002 | – | – | 3.81
323.15 K, x2 = 0.2004 | – | 1283 | –
323.15 K, x2 = 0.3002 | 1.85 | – | –
323.15 K, x2 = 0.3007 | – | – | 5.14
323.15 K, x2 = 0.3081 | – | 1317.8 | –
323.15 K, x2 = 0.3998 | – | – | 6.58
323.15 K, x2 = 0.4004 | – | 1340.2 | –
323.15 K, x2 = 0.4005 | 1.74 | – | –
323.15 K, x2 = 0.5004 | – | – | 8.34
323.15 K, x2 = 0.5007 | 1.57 | – | –
323.15 K, x2 = 0.5021 | – | 1359.32 | –
323.15 K, x2 = 0.5839 | – | 1371.65 | –
323.15 K, x2 = 0.6002 | – | – | 10.31
323.15 K, x2 = 0.6003 | 1.41 | – | –
323.15 K, x2 = 0.6902 | – | 1384.62 | –
323.15 K, x2 = 0.6979 | – | – | 12.41
323.15 K, x2 = 0.6989 | 1.25 | – | –
323.15 K, x2 = 0.7989 | – | 1395.23 | –
323.15 K, x2 = 0.8001 | 1.1 | – | –
323.15 K, x2 = 0.8015 | – | – | 15.15
323.15 K, x2 = 0.8959 | 0.93 | – | 17.34
323.15 K, x2 = 0.898 | – | 1403.08 | –
328.15 K, x2 = 0 | – | – | 1.63
328.15 K, x2 = 0.0502 | 1.41 | – | –
328.15 K, x2 = 0.1 | – | – | 2.47
328.15 K, x2 = 0.1004 | 1.89 | – | –
328.15 K, x2 = 0.2001 | 2.12 | – | –
328.15 K, x2 = 0.2002 | – | – | 3.45
328.15 K, x2 = 0.3002 | 2.06 | – | –
328.15 K, x2 = 0.3007 | – | – | 4.68
328.15 K, x2 = 0.3998 | – | – | 5.94
328.15 K, x2 = 0.4005 | 1.92 | – | –
328.15 K, x2 = 0.5004 | – | – | 7.41
328.15 K, x2 = 0.5007 | 1.74 | – | –
328.15 K, x2 = 0.6002 | – | – | 9.19
328.15 K, x2 = 0.6003 | 1.57 | – | –
328.15 K, x2 = 0.6979 | – | – | 11
328.15 K, x2 = 0.6989 | 1.4 | – | –
328.15 K, x2 = 0.8001 | 1.25 | – | –
328.15 K, x2 = 0.8015 | – | – | 13.3
328.15 K, x2 = 0.8959 | 1.07 | – | 15.12
333.15 K, x2 = 0 | – | – | 1.54
333.15 K, x2 = 0.1 | – | – | 2.31
333.15 K, x2 = 0.2002 | – | – | 3.22
333.15 K, x2 = 0.3007 | – | – | 4.26
333.15 K, x2 = 0.3998 | – | – | 5.37
333.15 K, x2 = 0.5004 | – | – | 6.66
333.15 K, x2 = 0.6002 | – | – | 8.17
333.15 K, x2 = 0.6979 | – | – | 9.7
333.15 K, x2 = 0.8015 | – | – | 11.7
333.15 K, x2 = 0.8959 | – | – | 13.26
